Experimental data taken from PMC10386613 (Molecules, 2023).
Values joined by “and” are separate entries in the source; they are usually repeats but may differ in a detail not shown here. Equal values may be shown once. Read-outs that look alike come from different tables or passages of the source.

Columns and labels:
[1] = molecular target: T1, neuraminidase from Clostridium perfringens (Clostridium perfringens, UniProt A0A0H2YQR1); type: biochemical; conditions: for Ki: Dixon plot, read-out: Ki (inhibition constant); for Inhibition Mode: Lineweaver–Burk plot; for IC50: fluorescent substrate 100 μM, 0.2 unit/mL enzyme, 50 mM sodium acetate buffer, read-out: IC50 against bacterial neuraminidase (BNA)
T1 sequence (A0A0H2YQR1 42-694 limits assumed): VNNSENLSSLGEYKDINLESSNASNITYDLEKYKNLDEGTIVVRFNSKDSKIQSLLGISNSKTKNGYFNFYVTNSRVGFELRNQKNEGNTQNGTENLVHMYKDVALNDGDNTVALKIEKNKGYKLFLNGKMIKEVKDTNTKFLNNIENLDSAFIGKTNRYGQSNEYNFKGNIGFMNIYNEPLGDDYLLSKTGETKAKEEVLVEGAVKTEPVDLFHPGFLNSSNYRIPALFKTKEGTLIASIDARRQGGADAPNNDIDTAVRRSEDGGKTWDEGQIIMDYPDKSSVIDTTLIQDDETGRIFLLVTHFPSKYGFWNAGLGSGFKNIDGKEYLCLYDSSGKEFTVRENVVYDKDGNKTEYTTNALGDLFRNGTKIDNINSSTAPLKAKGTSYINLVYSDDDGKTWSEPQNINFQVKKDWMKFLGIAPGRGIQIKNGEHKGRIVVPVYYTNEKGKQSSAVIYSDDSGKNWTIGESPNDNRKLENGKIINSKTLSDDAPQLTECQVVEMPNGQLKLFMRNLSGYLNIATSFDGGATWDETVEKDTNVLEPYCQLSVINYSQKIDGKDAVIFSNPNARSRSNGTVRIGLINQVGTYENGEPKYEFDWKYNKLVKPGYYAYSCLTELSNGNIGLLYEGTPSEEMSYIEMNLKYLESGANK

[2] = molecular target: T1, neuraminidase from Clostridium perfringens; type: binding; conditions: for KSV (Stern–Volmer quenching constant): excitation 290 nm, emission near 360 nm
[3] = fluorescence quenching, without substrate

Compound | Ki [1] | Inhibition Mode [1] | IC50 [1] | KSV (Stern–Volmer quenching constant) ([2]; without substrate) | KA (binding constant) [2, 3] | n (number of binding sites) [2, 3] | KA (binding constant) [2]
3,4′-O-dimethyl quercetin [Compound 2] | 24.7 ± 0.5 µM | Noncompetitive | 24.3 µM and 25.8 µM | 1440 L/mol | 39940 L/mol | 1.1063 | 
3,7-O-dimethyl quercetin [Compound 3] | 22.4 ± 0.9 µM | Noncompetitive | 25.8 µM and 24.3 µM | 1530 L/mol | 38180 L/mol | 1.0959 | 
COc1c(-c2ccc(O)c(O)c2)oc2cc(O)cc(O)c2c1=O [Compound 1, 3-O-methyl quercetin] |  | Noncompetitive |  | 2520 L/mol |  | 1.2106 | 0.05105
COc1cc(O)c2c(=O)c(OC)c(-c3ccc(OC)c(O)c3)oc2c1 [Compound 4, 3,7,4′-O-trimethyl quercetin] |  | Noncompetitive |  | 360 L/mol |  | 0.7071 | 0.00021
